Blank lines part the entries; values can stand above or below the compound they belong to.
Assays:
[1] = target: T1, Estrogen receptor beta (Homo sapiens, UniProt Q92731); test: Displacement of [3H]estradiol form human ERbeta receptor assessed as relative binding affinity by competitive radiometric binding assay relative to estradiol
[2] = target: T1, Estrogen receptor beta; test: Activity at human ERbeta expressed in HEC1 cells co-transfected with 2ERE-pS2-Luc assessed as relative transcriptional potency by luciferase reporter assay relative to estradiol; format: cell-based; conditions: HEC-1
[3] = target: T2, Estrogen receptor (Homo sapiens, UniProt P03372); test: Activity at human ERalpha expressed in HEC1 cells co-transfected with 2ERE-pS2-Luc assessed as relative transcriptional potency by luciferase reporter assay; format: cell-based, HEC-1
T2 sequence (P03372 whole entry): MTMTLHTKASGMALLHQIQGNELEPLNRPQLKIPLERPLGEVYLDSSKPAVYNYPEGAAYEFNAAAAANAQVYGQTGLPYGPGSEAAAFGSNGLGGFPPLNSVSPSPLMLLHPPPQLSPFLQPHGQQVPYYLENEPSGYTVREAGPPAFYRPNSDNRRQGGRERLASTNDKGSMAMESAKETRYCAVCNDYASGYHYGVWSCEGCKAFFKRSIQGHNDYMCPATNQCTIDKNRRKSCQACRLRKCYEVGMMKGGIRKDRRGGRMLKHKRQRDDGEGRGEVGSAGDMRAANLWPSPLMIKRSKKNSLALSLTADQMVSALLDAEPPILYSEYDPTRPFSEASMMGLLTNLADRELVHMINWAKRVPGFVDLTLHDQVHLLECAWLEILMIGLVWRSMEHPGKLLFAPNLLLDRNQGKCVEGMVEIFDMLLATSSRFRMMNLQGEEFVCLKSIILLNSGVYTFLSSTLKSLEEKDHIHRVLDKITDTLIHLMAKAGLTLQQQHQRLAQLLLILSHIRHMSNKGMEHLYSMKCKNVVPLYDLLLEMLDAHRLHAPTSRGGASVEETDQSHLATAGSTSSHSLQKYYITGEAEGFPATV

[4] = target: T1, Estrogen receptor beta; test: Activity at human ERbeta expressed in HEC1 cells co-transfected with 2ERE-pS2-Luc assessed as relative transcriptional potency by luciferase reporter assay; format: cell-based, HEC-1

T1 sequence (Q92731 whole entry): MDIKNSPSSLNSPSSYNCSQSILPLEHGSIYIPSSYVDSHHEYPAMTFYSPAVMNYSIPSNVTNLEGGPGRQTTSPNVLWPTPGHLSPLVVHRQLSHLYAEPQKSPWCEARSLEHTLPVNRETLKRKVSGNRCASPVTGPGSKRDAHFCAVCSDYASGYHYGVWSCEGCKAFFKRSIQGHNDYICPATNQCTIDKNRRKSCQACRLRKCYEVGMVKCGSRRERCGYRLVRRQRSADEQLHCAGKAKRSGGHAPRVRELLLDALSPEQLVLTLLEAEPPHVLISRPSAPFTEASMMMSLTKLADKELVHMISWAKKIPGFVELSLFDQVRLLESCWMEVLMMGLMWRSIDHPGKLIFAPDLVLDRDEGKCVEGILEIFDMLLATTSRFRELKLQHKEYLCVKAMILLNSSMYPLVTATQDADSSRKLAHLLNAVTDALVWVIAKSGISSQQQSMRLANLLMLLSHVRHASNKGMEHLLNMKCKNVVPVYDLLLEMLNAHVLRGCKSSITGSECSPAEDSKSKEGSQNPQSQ

Structure (SMILES): CC[C@H](c1ccc(O)cn1)[C@@H](C)c1ccc(O)cc1 (relative stereo)
RBA [1]: 5.3% | Activity [2]: 45% | EC50 [3]: 0.11 nM | EC50 [4]: 1.1 nM

Structure (SMILES): CCCC(Cc1ccc(O)cc1)c1ccc(O)cn1 (stereo not given)
RBA [1]: 0.101%

Structure (SMILES): CC(Cc1ccc(O)cn1)c1ccc(O)cc1 (stereo not given)
RBA [1]: 0.17% | Activity [2]: 0.29% | EC50 [3]: 440 nM | EC50 [4]: 170 nM

Structure (SMILES): CCC(Cc1ccc(O)cn1)c1ccc(O)cc1 (stereo not given)
RBA [1]: 0.15%

Structure (SMILES): Oc1ccc(CCc2ccc(O)cn2)cc1
RBA [1]: 0.025%

Structure (SMILES): CC(Cc1ccc(O)cc1)c1ccc(O)cn1 (stereo not given)
RBA [1]: 0.27% | Activity [2]: 0.83% | EC50 [3]: 330 nM | EC50 [4]: 60 nM

Results, then the compound that gave them:

RBA [1]: 7.5% | Activity [2]: 82% | EC50 [3]: 0.11 nM | EC50 [4]: 0.61 nM
Structure (SMILES): CC[C@H](c1ccc(O)cn1)[C@@H](CC)c1ccc(O)cc1 (relative stereo)

RBA [1]: 0.119%
Structure (SMILES): CC[C@H](c1ccc(O)cn1)[C@H](C)c1ccc(O)cc1 (relative stereo)

RBA [1]: 0.023%
Structure (SMILES): CC[C@H](c1ccccc1)[C@H](CC)c1ccc(O)cn1

RBA [1]: 0.684%
Structure (SMILES): CC[C@H](c1ccc(O)cn1)[C@@H](CC)c1ccccc1

RBA [1]: 0.72% | Activity [2]: 2.94% | EC50 [3]: 65 nM | EC50 [4]: 17 nM
Structure (SMILES): CCC(Cc1ccc(O)cc1)c1ccc(O)cn1 (stereo not given)

RBA [1]: 0.67% | Activity [2]: 1.9% | EC50 [3]: 16 nM | EC50 [4]: 26 nM
Structure (SMILES): CC[C@H](c1ccc(O)cc1)[C@H](CC)c1ccc(O)cn1 (relative stereo)

Source: ChEMBL document CHEMBL1153603, “Phenethyl pyridines with non-polar internal substituents as selective ligands for estrogen receptor beta” (Eur J Med Chem, 2009)
